The source of these data is US20170002011A1, “BENZENE SULFONAMIDES AS CCR9 INHIBITORS” (NORGINE B.V., priority 2013, published 2017).

Assay [1] addresses T1, CCR9 (Homo sapiens, UniProt P51686).
T1 sequence (P51686 1-369): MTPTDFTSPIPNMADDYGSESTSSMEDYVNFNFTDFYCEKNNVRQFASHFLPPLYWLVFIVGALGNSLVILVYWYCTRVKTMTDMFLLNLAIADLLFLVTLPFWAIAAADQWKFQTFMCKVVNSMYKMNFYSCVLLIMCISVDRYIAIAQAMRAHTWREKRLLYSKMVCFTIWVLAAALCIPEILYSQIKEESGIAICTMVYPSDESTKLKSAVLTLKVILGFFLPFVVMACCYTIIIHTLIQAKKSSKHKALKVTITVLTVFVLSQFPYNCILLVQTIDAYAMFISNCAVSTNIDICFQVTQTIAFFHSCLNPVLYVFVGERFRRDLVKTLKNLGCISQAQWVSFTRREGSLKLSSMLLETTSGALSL
Briefly: FLIPR calcium flux assay using hCCR9 over expressed cells (TECK stimulation). The format is cell-based. More on the design: expressed in transfected cells; host or cells: Chem-1 cells overexpressing hCCR9. To be noted: Chem1-hCCR9 overexpressing cells; Ki determined from IC50 of TECK-induced intracellular calcium increase. On the procedure:
Biological Activity: FLIPR Assay Using hCCR9 Over Expressed Cells
A calcium flux assay was used to determine the ability of the compounds to interfere with the binding between CCR9 and its chemokine ligand (TECK) in Cheml-hCCR9 overexpressing cells. hCCR9 overexpressing cells were seeded (25,000 cells/well) into black Poly-D-Lysine coated clear bottom 96-well plates (BD Biosciences, Cat #356640) and incubated overnight at 37° C./5% CO2 in a humidified incubator. Media was aspirated and cells washed twice with 100 μL assay buffer (1×HBSS, 20 mM HEPES) containing 2.5 mM Probenecid. A 0.3× Fluo-4 NW calcium dye was prepared in assay buffer containing 5 mM Probenecid and stored in the dark. Each well was loaded with 100 μL of 0.3× Fluo-4 NW calcium dye and incubated at 37° C./5% CO2 for 60 minutes and then at room temperature for 30 minutes. A half-log serially diluted concentration response curve was prepared at a 3× final assay concentration for each compound (10 μM−0.1 nM final assay concentration) and 50 μL of the compound then transferred to the cells (150 μL final volume) for 60 minutes prior to stimulation (30 minutes at 37° C./5% CO2 and 30 minutes at room temperature). TECK was diluted to 4× its ECso in assay buffer (containing 0.1% [w/v] bovine serum albumin[BSA]) and 50 μL dispensed through the fluorometric imaging plate reader (FLIPR) instrument to stimulate the cells (200 μL final volume). The increase in intracellular calcium levels was measured with the FLIPR instrument. The potency of the compound as a CCR9 antagonist was calculated as an IC50 using GraphPad Prism software (variable slope four parameter). The Ki of the compound was determined from the IC50 values using the following equation.
(§1) Ki calculation: IC50/1+(Agonist (TECK) conc. used in assay/EC50 of agonist (TECK) generated on day of experiment)
A general note: Calcium flux is commonly read through the fluorescence of an indicator in the cells.

Assay [2] addresses T1, CCR9. Briefly: FLIPR calcium flux assay using MOLT4 cells (TECK stimulation). Format: cell-based. The arrangement: endogenous in cells; host or cells: MOLT4 (human T-cell line). To be noted: MOLT4 cells (a human T-cell line); Ki determined from IC50 of TECK-induced intracellular calcium increase. How it is done:
Biological Activity: FLIPR Assay Using MOLT4 Cells
A calcium flux assay was used to determine the ability of the compounds to interfere with the binding between CCR9 and its chemokine ligand (TECK) in MOLT4 cells (a human T-cell line). MOLT4 cells were seeded (100,000 cells/well) in coming cell culture plates (Cat #3603) in assay buffer (lx HBSS, 20 mM HEPES) containing 2.5 mM Probenecid. The plate was centrifuged at 1200 rpm for 3 minutes and incubated at 37° C./5% CO2 for 2 hours. A 0.3× Fluo-4 NW calcium dye was prepared in assay buffer containing 5 mM Probenecid and stored in the dark. Each well was loaded with 25 μL of 0.3× Fluo-4 NW calcium dye and incubated at 37 C/5% CO2 for 60 minutes and then at room temperature for 30 minutes. A half-log serially diluted concentration response curve was prepared at a 4× concentration for each (10 μM-0.1 nM final assay concentration) and 25 μL of the compound then transferred to the cells (100 μL final volume) for 60 minutes prior to stimulation (30 minutes at 37° C./5% CO2 and 30 minutes at room temperature). TECK was diluted to 5× its EC50 in assay buffer (containing 0.1% [w/v] bovine serum albumin [BSA]) and 25 μL dispensed through the FLIPR instrument to stimulate the cells (125 μL final volume). The increased in intracellular calcium levels was measured with the FLIPR instrument. The potency of the compound as CCR9 antagonist was calculated as an IC50 using GraphPad Prism software (variable slope four parameter). The Ki of the compound was determined from the IC50 values using the following equation.
as §1

What is called Ki is a measure of affinity in units of concentration, obtained from inhibition or displacement. Turning to `COc1cncc(-c2cc3c(C#N)ccc(NS(=O)(=O)c4ccc(C(C)(C)C)cc4)n3n2)c1` [Compound 161], the Ki on CCR9 [1] was 127 nM; at CCR9 [2], 62 nM.

For `Cc1cc2c(Cl)ccc(NS(=O)(=O)c3ccc(C(C)(C)C#N)cc3)n2n1` [Compound 98], the Ki on CCR9 [1] turned out to be 512 nM; on CCR9 [2], 109 nM.

Turning to `CC(C)c1cc2nccc(NS(=O)(=O)c3ccc(C(C)(C)C)cc3)n2n1` [Compound 79, 4-(tert-butyl)-N-(2-isopropylpyrazolo[1,5-a]pyrimidin-7-yl)benzenesulfonamide], the Ki on CCR9 [1] came out at 1520 nM; at CCR9 [2], 295 nM.

Consider `O=S(=O)(Nc1ccc(Cl)c2cc(-c3cccnc3)nn12)c1ccc(C(F)(F)F)cc1` [Compound 113], for which the Ki on CCR9 [1] came out at 756 nM; at CCR9 [2] it was 187 nM.

`Cn1ccc(-c2cc3c(C#N)ccc(NS(=O)(=O)c4ccc(C(C)(C)C)cc4)n3n2)c1` [Compound 159]: the Ki at CCR9 [1] was 136 nM; at CCR9 [2], 96 nM.

Turning to `CC(C)(C)c1ccc(S(=O)(=O)Nc2ccc(C#N)c3cc(-c4cn[nH]c4)nn23)cc1` [Compound 164, 4-(tert-butyl)-N-(4-cyano-2-(1H-pyrazol-4-yl)pyrazolo[1,5-a]pyridin-7-yl)benzenesulfonamide], the Ki was determined as 112 nM at CCR9 [1] and 34 nM at CCR9 [2].

For `Cn1ccc(-c2cc3c(C#N)ccc(NS(=O)(=O)c4ccc(C(C)(C)C)cc4)n3n2)n1` [Compound 184], the Ki at CCR9 [1] stood at 17 nM; on CCR9 [2], 22 nM.

On to `COc1ccc(-c2cc3c(C#N)ccc(NS(=O)(=O)c4ccc(C(C)(C)C)cc4)n3n2)cn1` [Compound 198], for which the inhibition constant (Ki) on CCR9 [1] was determined as 54 nM; at CCR9 [2], 26 nM.

Consider `CC(C)(C)c1ccc(S(=O)(=O)Nc2ccc(Cl)c3cc(C4CC4)nn23)cc1` [Compound 105], for which the Ki was found to be 56 nM on CCR9 [1] and 285 nM on CCR9 [2].

On to `CC(C)(C)c1ccc(S(=O)(=O)Nc2c(C#N)ccc3cc(-c4cccnc4)nn23)cc1` [Compound 180, 4-(tert-butyl)-N-(6-cyano-2-(pyridin-3-yl)pyrazolo[1,5-a]pyridin-7-yl)benzenesulfonamide], for which the inhibitory constant (Ki) was 133 nM at CCR9 [1] and 30 nM on CCR9 [2].

In the case of `Cn1ccc(-c2cc3c(Cl)ccc(NS(=O)(=O)c4ccc(C(C)(C)C)cc4)n3n2)n1` [Compound 183], the Ki at CCR9 [1] was determined as 94 nM; on CCR9 [2], 95 nM.

For the compound `Cc1cc2c(C#N)ccc(NS(=O)(=O)c3ccc(C(C)(C)C)cc3)n2n1` [Compound 95, 4-(tert-butyl)-N-(4-cyano-2-methylpyrazolo[1,5-a]pyridin-7-yl)benzene sulfonamide], the results for the Ki on CCR9 [1] and at CCR9 [2] were 110 nM and 2 nM, respectively.

As to `Cc1cncc(-c2cc3c(Cl)ccc(NS(=O)(=O)c4ccc(C(C)(C)C)cc4)n3n2)c1` [Compound 199], the inhibitory constant (Ki) came to 63 nM on CCR9 [1] and 105 nM at CCR9 [2].

Turning to `Cn1nnc(-c2cc3c(Cl)ccc(NS(=O)(=O)c4ccc(C(C)(C)C)cc4)n3n2)n1` [Compound 192], the Ki at CCR9 [1] is 183 nM; on CCR9 [2], 161 nM.

As to `Cc1ncccc1-c1cc2c(C#N)ccc(NS(=O)(=O)c3ccc(C(C)(C)C)cc3)n2n1` [Compound 204], the inhibition constant (Ki) was found to be 121 nM on CCR9 [1] and 37 nM at CCR9 [2].

As for `CC(C)(C)c1ccc(S(=O)(=O)Nc2ccc(Cl)c3cc(-c4ccc[n+]([O-])c4)nn23)cc1` [Compound 111, 3-(7-((4-(tert-butyl)phenyl)sulfonamido)-4-chloropyrazolo[1,5-a]pyridin-2-yl)pyridine 1-oxide], the values for the inhibition constant (Ki) on CCR9 [1] and on CCR9 [2] were 190 nM and 56 nM, respectively.

As to `Cc1ccc(-c2cc3c(C#N)ccc(NS(=O)(=O)c4ccc(C(C)(C)C)cc4)n3n2)cn1` [Compound 206], the inhibitory constant (Ki) at CCR9 [1] was found to be 128 nM; at CCR9 [2] it was 64 nM.

Consider `Cc1ncccc1-c1cc2c(Cl)ccc(NS(=O)(=O)c3ccc(C(C)(C)C)cc3)n2n1` [Compound 203], for which the Ki turned out to be 149 nM at CCR9 [1] and 85 nM at CCR9 [2].

As for `CC(C)n1cc(-c2cc3c(C#N)ccc(NS(=O)(=O)c4ccc(C(C)(C)C)cc4)n3n2)cn1` [Compound 191], the inhibitory constant (Ki) on CCR9 [1] was determined as 9 nM; on CCR9 [2], 19 nM.

As to `CC(C)(C)c1ccc(S(=O)(=O)Nc2ccc(C#N)c3cc(-c4cncc(F)c4)nn23)cc1` [Compound 156, 4-(tert-butyl)-N-(4-cyano-2-(5-fluoropyridin-3-yl)pyrazolo[1,5-a]pyridin-7-yl)benzenesulfonamide], the inhibition constant (Ki) at CCR9 [1] was found to be 107 nM; on CCR9 [2], 51 nM.

`CC(C)n1cc(-c2cc3c(Cl)ccc(NS(=O)(=O)c4ccc(C(C)(C)C)cc4)n3n2)cn1` [Compound 186]: the figures for the Ki at CCR9 [1] and on CCR9 [2] were 67 nM and 31 nM, respectively.
